Entries after “also recorded” stand apart in the source; their conditions may differ. Where two headings read alike, the source gives them in different places.
Columns and labels:
p53 [1] = assay: p53-responsive reporter activity in tumor cells (HT1080 and others); type: cell-based, human; details: for time of peak (maximum) p53 reporter activity: HT1080 cells
Procedure: (§1) Transient transfections. 2×10^5 cells were plated into 6-well plates and, after overnight incubation, transfected with Lipofectamin Plus reagent (Gibco BRL) with 0.5 μg of reporter plasmids (p21-ConALuc or pNF-κBLuc) in combination with different concentrations of plasmids expressing p53, Arf, Ss-IκB, or siHDM2. Corresponding empty vectors were added in all transfections up to 2 μg of total DNA. Normalization of transfection efficiency was done by adding 0.2 μg of pCMV-LacZ plasmid. Luciferase activity and β-galactosidase activity were measured in lysates prepared 48 hours after transfection with Cell Lysis Buffer (Promega) by the luciferase assay system (Promega) or β-galactosidase enzyme system (Promega). Luminometric and colorimetric reactions were read on the Wallack 1420 plate reader (Perkin Elmer). Stable transduction of reporters. 2×10^4 cells with integrated reporter were plated in 96-well plates. After overnight incubation, chemicals or media from lentivirus-producing cells were added. At different times, cell lysates were prepared using Reporter Lysis Buffer (Promega). Luciferase or β-galactosidase activity and protein concentration were measured in aliquots of cell lysates using standard kits (Promega, Luciferase and β-galactosidase assay systems, Biorad Protein Assay Kit).

NF-κB [2] = assay: NF-κB-dependent reporter in H1299-NF-kBLuc cells; type: cell-based, human; details: for basal activity of NF-κB: H1299-NF-κBLuc cells, tested side-by-side with 9AA
Procedure: as §1

p53-deficient cells [3] = assay: Survival of isogenic pairs of tumor cells differing in p53 expression; details: isogenic pairs of cell lines, shRNA-mediated p53 knockdown
Procedure: (§4) All cells were maintained in RPMI 1640 medium, supplemented with 10% FBS, 1 mM sodium pyruvate, 10 mM Hepes buffer, 55 nM β-mercaptoethanol and antibiotics. […] Cells with inhibited p53 expression were generated by retroviral transduction of pBabeH1-sip53 or pBabeH1-siGFP vectors for siRNA expression with following selection on puromycin.
(§5) Clonogenic survival. 5×10^3 cells were plated in 6-well plates and treated with different concentrations of drugs for 24 hours. Then fresh drug-free medium was added and the numbers of colonies were estimated 7-14 days later. Growth inhibition assay. […] Cell survival was estimated after an additional 48 hours, using standard Methylene Blue staining followed by extraction and colorimetrical detection of the dye.

p53 [4] = assay: Screening for p53-activating compounds, p53-responsive reporter in RCC45ConALacZ cells; type: cell-based, human
Procedure: as §1
The DiverSet library of 34,000 chemical compounds and focused libraries of structural analogues of selected hits were provided by Chembridge, Calif. Cell lines with p53- or NF-κB-responsive luciferase or β-galactosidase reporters were described previously (5, 7). For screening chemicals, 2×10^4 RCC45ConALacZ cells (RCC45-based p53 reporter cells) were plated per well of 96-well plates in 200 μL of phenol-red-free RPMI medium with standard additions. After overnight incubation, the compounds were added to final concentrations of 5-15 μM (0.2 μL of compound in DMSO per well). […] After 24 h, lysis buffer with ortho-nitrophenyl-β-D-galactopyranoside (ONPG) was added and β-galactosidase activity was estimated colorimetrically by a multiwell plate reader.

p53 [5] = assay: p53, p21 and Mdm2 levels in treated cells (Western analysis); type: cell-based, human
Procedure: (§2) Cells were lysed in RIPA buffer (25 mM Tris HCl, pH 7.2, 125 mM NaCl, 1% NP40, 1% sodium deoxycholate, 1 mM EDTA) containing 1 mM PMSF (Sigma), 10 ug/ml of aprotinin (Sigma) and 10 ug/ml of leupeptin (Sigma). Protein concentrations were determined with the BioRad Dc protein assay kit. Equal protein amounts were run on gradient 4-20% precast gels (Novex) and blotted onto PVDF membranes (Amersham). The following antibodies were used: anti-p53—monoclonal mouse DO1 (Santa-Cruz), anti-p21—monoclonal mouse F-5 (Santa-Cruz), anti-mdm2—monoclonal mouse SMP14 (Santa-Cruz), anti-p65—(C20, Santa Cruz), anti-phospho-p65—(ser536, Cell Signaling), anti-IκBa—(C21, Santa Cruz), anti-p50—(NLS, Santa Cruz), anti-IKK1 (Cell Signaling), anti-γH2X (Cell Signaling), anti-actin (Santa Cruz). p53 phosphorylation status was analyzed using the phospho-p53 sampler kit from Cell Signaling according to the manufacturer's recommendations. HRP-conjugated secondary antibodies were purchased from Santa Cruz. Quantitation of the data was performed using Quantity One software from BioRad.

HT1080 cells = assay: Cell cycle analysis; type: cell-based, human; details: p53-dependent
Procedure: At the end of the incubation period, cells were collected, fixed and stained with propidium iodide as previously described (3a). DNA content was measured using FACScalibur (Becton Dickinson) and analyzed using CellQuest software.

RCC45 and RCC54 cells = assay: Growth arrest or apoptosis of RCC cells treated with 9AA; type: cell-based, human
RCC cell lines = assay: Growth inhibition assay, RCC, non-RCC and normal kidney (NKE) cells; type: cell-based, human
Procedure: Growth inhibition assay. […] Cell survival was estimated after an additional 48 hours, using standard Methylene Blue staining followed by extraction and colorimetrical detection of the dye.

p53 [6] = assay: Phosphorylation status of p53 (Western analysis); type: cell-based, human; details: RCC45 cells, 9AA 5 μM, 16 h
Procedure: as §2

histone H2A.X = assay: Immunofluorescent detection of phosphorylated histone H2A.X; type: cell-based, human; details: HT1080 cells, 10 μM
Source text: (§3) All washings were done with blocking solution.

topoisomerase II = assay: DNA topoisomerase II activity assay; type: cell-based, human; details: direct in vitro assay, 1 h
proteasomal activity = assay: Proteasome inhibitor assay; type: biochemical; details: direct in vitro assay (not shown)
Source text: The kit for assaying proteasomal activity was purchased from Boston Biochem, Inc. and used according to the manufacturer's recommendations.

IκBα = IκBα level (Western analysis); type: cell-based, human
Procedure: as §2

p53 [7] = assay: Transient transfection of sr-IκB with p53-responsive reporter; type: cell-based, human; details: ACHN cells, 9AA 10 μM, 24 h
Procedure: as §1

NF-κB [8] = assay: Electromobility shift assay and immunofluorescent staining of nuclear NF-κB; type: cell-based, human
Source text: as §3

p65 subunit of NF-κB = assay: Phosphorylation of serine 536 of p65 (Western analysis); type: cell-based, human; details: basally and after TNF-dependent induction; 9AA 10 μM
Procedure: as §2

p53-deficient cells [9] = tested on: p53-deficient cells
Procedure: as §4, §5

ACHN cells = assay: Experimental chemotherapy of tumor xenografts; type: in vivo, nude mice; details: ACHN xenograft nude mice; QC 50 mg/kg; 5-fluorouracil 35 mg/kg
Procedure: NIH Swiss athymic nude, male mice, 5-6 weeks old, were purchased from Harlan. 5×10^6 tumor cells were inoculated into the flanks of mice in 100 μL of PBS. When tumors reached 5 mm in diameter, intraperitoneal injections of drugs were started in 100 μL of a solution of 50% DMSO in PBS (except for quinacrine, which was dissolved in PBS). As vehicle, 50% DMSO solution in PBS was used. Tumor size was measured in three dimensions every other day.

p53 [10] = assay: p53 reporter in organ cultures of human RCC tumor samples; type: cell-based; details: organ cultures of adjacent normal kidney, 12 hours
Procedure: FIG. 11. QC can activate p53 transactivation in organ cultures of human RCC tumor samples. Fresh surgically removed samples of tumor and adjacent normal kidney were cut into small pieces and put into media containing ConALacZ virus (5×10^7 TU/ml) with […] of polybrene for 4 hours. 24 hours after infection, tissue pieces (at least three per treatment) were incubated with media containing quinacrine or doxorubicin for 12 hours. Then the tissues were fixed for 30 min in PBS containing 0.5% glutaraldehyde and 1 mM MgCl2. Pieces of tumor were stained in PBS solution containing X-gal (1 mM MgCl2, 3.3 mM K4Fe(CN)6, 3.3 mM K3Fe(CN)6, 0.02% NP40, 0.2% X-gal) overnight at 37° C. Stained specimens were analyzed microscopically by squeezing pieces of tumor and normal tissues between two glass slides.

[11] = PLA2 inhibitors, data not shown

COc1cc(CNC(=O)CCCC/C=C/C(C)C)ccc1O [capsaicin]
activation of p53 by known NF-κB inhibitors (p53 [1]; data not shown): capable of activating p53 | basal activity of NF-κB (NF-κB [2]): did not reduce the basal activity

Cc1ccc(S(=O)(=O)/C=C/C#N)cc1 [Bay11-7082]
activation of p53 by known NF-κB inhibitors (p53 [1]; data not shown): capable of activating p53 | basal activity of NF-κB (NF-κB [2]): did not reduce the basal activity

CC(=O)O[C@H]1C(=O)[C@@]2(C)[C@H]([C@H](OC(=O)c3ccccc3)[C@]3(O)C[C@H](OC(=O)[C@H](O)[C@@H](NC(=O)c4ccccc4)c4ccccc4)C(C)=C1C3(C)C)[C@]1(OC(C)=O)CO[C@@H]1C[C@@H]2O [taxol]
toxicity to p53-deficient cells (p53 dependence of cytotoxicity) (p53-deficient cells [3]): equally or even more toxic than 9AA to p53-deficient cells

CC[C@@]1(O)C(=O)OCc2c1cc1n(c2=O)Cc2cc3ccccc3nc2-1 [camptothecin]
toxicity to p53-deficient cells (p53 dependence of cytotoxicity) (p53-deficient cells [3]): equally or even more toxic than 9AA to p53-deficient cells

Nc1c2ccccc2nc2ccccc12 [9AA, 9-aminoacridine]
activation of the p53-dependent reporter (p53 transactivation) in RCC (p53 [4]): structure primarily responsible for induction of the reporter | time of peak (maximum) p53 reporter activity (p53 [1]): 24 h | activation of p53-mediated transcription compared with DNA-damaging agents (p53 [1]; tumor cells with wild-type p53, 9AA 1-10 μM, doxorubicin 0.2-2 μM, 24 h): more strongly than doxorubicin in the majority of tumor cells tested; also recorded: more strongly than DNA-damaging agents | levels of the endogenous proteins p21 and Mdm2 (p53 [5]; cells treated for 16 h): dose-dependent increase | p53 mRNA expression (p53 [5]; data not shown): No increase | stabilization and accumulation of p53 protein (p53 [5]; treated cells (HT1080, 5 μM 9AA, 16 hours in FIG. 6)): induced stabilization and accumulation of p53 protein; also recorded: leads to p53 stabilization | effect on the cell cycle (HT1080 cells; 3 μM): growth arrest | effect on the cell cycle (HT1080 cells; 20 μM): apoptosis | cellular effect in RCC45 and RCC54 cells (RCC45 and RCC54 cells; 2 μM): growth arrest | cellular effect in RCC45 and RCC54 cells (RCC45 and RCC54 cells; 10 μM): apoptosis | IC50 in RCC cells compared with non-RCC cells (RCC cell lines; 6 RCC and 6 non-RCC cell lines, growth inhibition assay): in the same range as for non-RCC cells | sensitivity of RCC-derived cell lines versus normal kidney epithelial (NKE) cells (RCC cell lines; 72 h after treatment): more toxic for RCC than for NKE cells; also recorded: more sensitive to 9AA than normal kidney epithelial cells | phosphorylation of p53 (p53 [6]): did not induce the phosphorylation of p53 | phosphorylation of p53 serine 392 (p53 [6]): increasingly phosphorylated | phosphorylation of histone H2A.X (histone H2A.X): Neither 9AA nor QC induced phosphorylation of histone H2A.X | poisoning of topoisomerase II (topoisomerase II): no such activity | inhibition of proteasomal activity (proteasomal activity): ruled out | level of IκBα (IκBα; PC-3 cells 10 μM 1-8 h, MCF7 cells 10 μM): gradual decrease or even complete disappearance of IκBα | TNF-stimulated induction of IκBα (IκBα; TNF 10 ng/ml, 9AA 10 μM): blocked; also recorded: inhibits reconstitution of the level of IκB protein | basal and TNF-induced NF-κB reporter activities (NF-κB [2]; H1299-NF-kB-Luc cells, TNF 10 ng/ml): strong dose-dependent suppression; also recorded: capable of inhibiting both basal and TNF-induced activities of NF-κB | inhibition of NF-κB transactivation induced by trichostatin A (NF-κB [2]; H1299 cells, 100 nM TSA, 9AA 20 μM, 4 or 16 hours): could no longer be blocked by 9AA; also recorded: does not inhibit | activation of a p53-dependent reporter in the presence of sr-IκB (p53 [7]): could not further activate | binding of NF-κB to DNA (NF-κB [8]; H1299-NF-κBLuc cells, with TNF 10 ng/ml, 6 h, gel-shift): significant increase in the binding of NF-κB to DNA | nuclear accumulation and retention of NF-κB (p65) complexes (NF-κB [8]; TNF 10 ng/ml, 10 μM): greatly prolonged the time of its presence in nuclei; also recorded: causes nuclear accumulation of inactive NF-κB; also recorded: causes accumulation of p65/p50 and p50/p50 NF-κB complexes in the nuclei | composition of NF-κB complexes (NF-κB [8]; gel-shift assays with antibodies, H1299 cells): did not significantly change the composition of NF-κB complexes | proportion of phosphorylated serine 536 in the p65 subunit of NF-κB (p65 subunit of NF-κB): reduce the proportion of phosphorylated serine 536; also recorded: decreases the phosphorylation of p65 in response to TNF | toxicity to p53-deficient cells (p53 dependence of cytotoxicity) (p53-deficient cells [9]): less toxic to p53-deficient cells

CCCCCCCCCCCCCCCCSC[C@H](COP(=O)(O)OCC[N+](C)(C)C)NC(=O)CCCCCCCCCCCCCCC [thioetheramide-PC]
induction of p53 (p53 [1]; [11]): could neither induce p53 | inhibition of NF-κB (NF-κB [2]; [11]): nor inhibit NF-κB

O=C(O)c1cc(/N=N/c2ccc(S(=O)(=O)Nc3ccccn3)cc2)ccc1O [sulfasalazine]
activation of p53 by known NF-κB inhibitors (p53 [1]; data not shown): capable of activating p53 | basal activity of NF-κB (NF-κB [2]): did not reduce the basal activity

CC(/C=C/C(=O)NO)=C\[C@@H](C)C(=O)c1ccc(N(C)C)cc1 [trichostatin A]
NF-κB-dependent transcription (NF-κB [2]; H1299 cells, 100 nM TSA, 4 or 16 hours): strong activation of NF-κB-dependent transcription

O=c1[nH]cc(F)c(=O)[nH]1 [5-fluorouracil]
weight loss (ACHN cells): up to 20%

CC[C@]1(O)C[C@@H]2CN(CCc3c([nH]c4ccccc34)[C@@](C(=O)OC)(c3cc4c(cc3OC)N(C)[C@H]3[C@@](O)(C(=O)OC)[C@H](OC(C)=O)[C@]5(CC)C=CCN6CC[C@]43[C@@H]65)C2)C1 [vinblastine]
toxicity to p53-deficient cells (p53 dependence of cytotoxicity) (p53-deficient cells [3]): equally or even more toxic than 9AA to p53-deficient cells

COc1cccc2c1C(=O)c1c(O)c3c(c(O)c1C2=O)C[C@@](O)(C(=O)CO)C[C@@H]3O[C@H]1C[C@H](N)[C@H](O)[C@H](C)O1 [doxorubicin]
activation of the p53-dependent reporter (p53 transactivation) in RCC (p53 [4]): weakly activating | time of peak (maximum) p53 reporter activity (p53 [1]): 8 to 12 h | p53-responsive reporter induction in normal kidney samples (p53 [10]): no reporter induction | toxicity to p53-deficient cells (p53 dependence of cytotoxicity) (p53-deficient cells [3]): equally or even more toxic than 9AA to p53-deficient cells
